ChEMBL document CHEMBL1126767, “Three-dimensional quantitative structure-activity relationship of angiotesin-converting enzyme and thermolysin inhibitors. II. A comparison of CoMFA models incorporating molecular orbital fields and desolvation free energies based on active-analog and complementary-receptor-field alignment rules” (J Med Chem, 1993)
Peptide text beside a SMILES is read from it.

Molecular target: Angiotensin-converting enzyme (Homo sapiens, UniProt P12821)
Test: Inhibitory activity against angiotensin converting enzyme (ACE)
Type: functional

IC50	SMILES
537 µM	CC(S)C(=O)N[C@@H](CS)C(=O)O (stereo in doubt; form 1)
7.94 µM	CC(S)C(=O)N[C@@H](CS)C(=O)O (stereo in doubt; form 2)
7240 µM	CC(C)(S)C(=O)N[C@@H](CS)C(=O)O [BUCILLAMINE]
0.0363 µM	NCCCC[C@H](OP(=O)(O)CCCCc1ccccc1)C(=O)N1CCC[C@H]1C(=O)O [CERONAPRIL]
447 µM	NCC(=O)N1CCC[C@H]1C(=O)O [GLYCYL PROLINE] (H-Gly-Pro-OH)

The next lines start with the compound.

SMILES	IC50
CC(S)C(=O)N[C@@H](Cc1c[nH]c2ccccc12)C(=O)O (stereo in doubt; form 1)	0.363 µM
O=C(CCS)N[C@@H](Cc1c[nH]c2ccccc12)C(=O)O (stereo in doubt; form 1)	> 1000 µM
CC(S)C(=O)N[C@@H](Cc1c[nH]c2ccccc12)C(=O)O (stereo in doubt; form 2)	0.0646 µM
O=C(CCS)N[C@@H](Cc1c[nH]c2ccccc12)C(=O)O (stereo in doubt; form 2)	4.57 µM

Molecular target: T1, Angiotensin-converting enzyme (Rattus norvegicus, UniProt P47820)
T1 sequence (P47820 whole entry): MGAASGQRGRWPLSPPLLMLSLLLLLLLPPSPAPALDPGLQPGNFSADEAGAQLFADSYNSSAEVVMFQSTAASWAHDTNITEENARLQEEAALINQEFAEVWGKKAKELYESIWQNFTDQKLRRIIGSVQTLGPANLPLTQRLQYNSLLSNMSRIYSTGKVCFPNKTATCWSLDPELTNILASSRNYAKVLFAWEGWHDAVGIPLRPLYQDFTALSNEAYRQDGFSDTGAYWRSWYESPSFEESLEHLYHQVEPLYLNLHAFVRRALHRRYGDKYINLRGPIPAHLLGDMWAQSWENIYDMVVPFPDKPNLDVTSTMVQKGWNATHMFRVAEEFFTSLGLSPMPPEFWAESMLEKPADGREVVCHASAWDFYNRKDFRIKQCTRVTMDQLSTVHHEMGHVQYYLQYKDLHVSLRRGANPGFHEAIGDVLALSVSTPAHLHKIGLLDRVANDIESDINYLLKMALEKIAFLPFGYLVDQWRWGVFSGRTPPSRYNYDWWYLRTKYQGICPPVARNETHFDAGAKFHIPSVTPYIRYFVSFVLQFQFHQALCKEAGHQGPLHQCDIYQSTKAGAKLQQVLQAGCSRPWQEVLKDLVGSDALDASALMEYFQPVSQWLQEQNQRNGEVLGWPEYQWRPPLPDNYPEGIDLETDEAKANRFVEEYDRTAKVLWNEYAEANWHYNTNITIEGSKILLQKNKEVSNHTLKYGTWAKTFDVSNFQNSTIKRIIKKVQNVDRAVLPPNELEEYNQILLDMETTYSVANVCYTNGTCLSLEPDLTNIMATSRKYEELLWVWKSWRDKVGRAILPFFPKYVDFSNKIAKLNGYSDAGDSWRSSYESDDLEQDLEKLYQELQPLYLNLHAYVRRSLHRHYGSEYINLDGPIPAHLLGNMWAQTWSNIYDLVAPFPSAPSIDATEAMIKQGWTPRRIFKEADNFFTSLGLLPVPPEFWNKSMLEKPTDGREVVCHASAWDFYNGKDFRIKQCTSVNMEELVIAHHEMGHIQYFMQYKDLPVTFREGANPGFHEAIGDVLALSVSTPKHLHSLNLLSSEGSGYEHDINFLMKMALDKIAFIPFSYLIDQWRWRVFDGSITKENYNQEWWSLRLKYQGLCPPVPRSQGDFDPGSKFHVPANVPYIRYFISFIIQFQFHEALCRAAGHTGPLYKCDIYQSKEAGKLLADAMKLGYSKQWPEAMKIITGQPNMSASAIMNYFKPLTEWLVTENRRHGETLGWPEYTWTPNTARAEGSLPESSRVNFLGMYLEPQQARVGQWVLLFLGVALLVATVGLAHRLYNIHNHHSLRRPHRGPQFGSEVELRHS
Test: Inhibitory activity against angiotensin converting enzyme (ACE); Activity is for a diastereomeric or racemic mixture
Type: functional

IC50	SMILES
0.00776 µM	C[C@H](NC(C(=O)O)C(Cc1ccccc1)NC(=O)c1ccccc1)C(=O)N1CCC[C@H]1C(=O)O (stereo not given in full)
